Key:
[1] = target: T1, rat-species vanilloid receptor 1 (VR1/TRPV1) (Rattus norvegicus, UniProt O35433); assay: Functional testing on vanilloid receptor 1 (VR1/TRPV1), FLIPR Ca2+ inflow assay in rat dorsal root ganglia cells; assay type: cell-based; settings: test compound 10 μM; for inhibition at 10 µM: read-out: VR1 (rat) (% inhibition compared to 10 μM CP); for activation at 10 µM: read-out: VR1 (rat) (% stimulation compared to 10 μM CP)
T1 construct: endogenous in cells; host or cells: primary cultured rat dorsal root ganglion cells
From the text: I. Functional Testing Carried out on the Vanilloid Receptor 1 (VRI/TRPV1 Receptor)
(§1) The agonistic or antagonistic effect of the substances to be tested can be determined on the rat-species vanilloid receptor 1 (VR1/TRPV1) using the following assay. According to this assay, the Ca^2+ inflow is quantified through the receptor channel using a Ca^2+-sensitive dye (type Fluo-4, Molecular Probes Europe BV, Leiden, Netherlands) in a fluorescent imaging plate reader (FLIPR, Molecular Devices, Sunnyvale, USA).
Complete medium: 50 mL HAMS F12 nutrient mixture (Gibco Invitrogen GmbH, Karlsruhe, Germany) with
10% by volume of FCS (foetal calf serum, Gibco Invitrogen GmbH, Karlsruhe, Germany, […]);
2 mM L-glutamine (Sigma, Munich, Germany);
1% by weight of AA solution (antibiotic/antimyotic solution, PAA, Pasching, Austria) and 25 ng/ml NGF medium (2.5 S, Gibco Invitrogen GmbH, Karlsruhe, Germany)
Cell culture plate: Poly-D-lysine-coated, black 96 well plates having a clear base (96 well black/clear plate, BD Biosciences, Heidelberg, Germany) were additionally coated with laminin (Gibco Invitrogen GmbH, Karlsruhe, Germany), the laminin being diluted with PBS (Ca—Mg-free PBS, Gibco Invitrogen GmbH, Karlsruhe, Germany) to a concentration of 100 μg/mL. Aliquots having a laminin concentration of 100 μg/mL were removed and stored at −20° C. The aliquots were diluted with PBS in a ratio of 1:10 to 10 μg/mL laminin and in each case 50 μL of the solution were pipetted into a recess in the cell culture plate. The cell culture plates were incubated for at least two hours at 37° C., the excess solution was removed by suction-filtration and the recesses were each washed twice with PBS. The coated cell culture plates were stored with excess PBS which was not removed until just before the feeding of the cells.
Preparation of the Cells:
The vertebral column was removed from decapitated rats and placed immediately into cold HBSS buffer (Hank's buffered saline solution, Gibco Invitrogen GmbH, Karlsruhe, Germany), i.e. buffer located in an ice bath, mixed with 1% by volume (percent by volume) of an AA solution (antibiotic/antimyotic solution, PAA, Pasching, Austria). The vertebral column was cut longitudinally and removed together with fasciae from the vertebral canal. Subsequently, the dorsal root ganglia (DRG) were removed and again stored in cold HBSS buffer mixed with 1% by volume of an AA solution. The DRG, from which all blood remnants and spinal nerves had been removed, were transferred in each case to 500 μL of cold type 2 collagenase (PAA, Pasching, Austria) and incubated for 35 minutes at 37° C. After the addition of 2.5% by volume of trypsin (PAA, Pasching, Austria), incubation was continued for 10 minutes at 37° C. After complete incubation, the enzyme solution was carefully pipetted off and 500 μL of complete medium were added to each of the remaining DRG. The DRG were in each case suspended several times, drawn through cannulae No. 1, No. 12 and No. 16 using a syringe and transferred to a 50 mL Falcon tube which was filled up to 15 mL with complete medium. The contents of each Falcon tube was in each case filtered through a 70 μm Falcon filter element and centrifuged for 10 minutes at 1,200 rpm and room temperature. The resulting pellet was in each case taken up in 250 μL of complete medium and the number of cells determined.
The number of cells in the suspension was set to 3×10^5 per mL and 150 μL of this suspension were in each case introduced into a recess in the cell culture plates coated as described hereinbefore. In the incubator the plates were left for two to three days at 37° C., 5% by volume of CO2 and 95% relative humidity. […]

VR1 (human) = target: T2, VR1 (human) (Homo sapiens, UniProt Q8NER1); assay: Functional testing on vanilloid receptor VR1, FLIPR Ca2+ inflow assay (CHO K1 cells stably transfected with the VR1 gene); assay type: cell-based; settings: test compound 10 μM; for inhibition at 10 µM / activation at 10 µM: CHO-K1; for inhibition at 10 µM: read-out: VR1 (human) (% inhibition compared to 10 μM CP); for activation at 10 µM: read-out: VR1 (human) (% stimulation compared to 10 μM CP)
T2 construct: expressed in transfected cells; host or cells: CHO K1 cells (ECACC)
From the text: II. Functional Testing Carried out on the Vanilloid Receptor (VR1)
as §1, with “can also” for “can”, “the” for “the rat-species”, “(VR1)” for “1 (VR1/TRPV1)”, “the” for “the receptor”
Chinese hamster ovary cells (CHO K1 cells, European Collection of Cell Cultures (ECACC) United Kingdom) were stably transfected with the VR1 gene. For functional testing, these cells were plated out on poly-D-lysine-coated black 96 well plates having a clear base (BD Biosciences, Heidelberg, Germany) at a density of 25,000 cells/well. The cells were incubated overnight at 37° C. and 5% CO2 in a culture medium (Ham's F12 nutrient mixture, 10-% by volume of FCS (foetal calf serum), 18 μg/ml L-proline). The next day the cells were incubated with Fluo-4 (Fluo-4 2 μM, 0.01% by volume of Pluronic F127, Molecular Probes in HBSS (Hank's buffered saline solution), Gibco Invitrogen GmbH, Karlsruhe, Germany) for 30 minutes at 37° C. Subsequently, the plates were washed 3 times with HBSS buffer and after further incubation for 15 minutes at room temperature used for Ca^2+ measurement in a FLI PR assay. The Ca^2+-dependent fluorescence was measured before and after the addition of the substances to be tested (λex wavelength=488 nm, λem=540 nm). Quantification was carried out by measuring the highest fluorescence intensity (FC, Fluorescence Counts) over time.
The FLIPR protocol consists of 2 substance additions. First the compounds to be tested (10 μM) were pipetted onto the cells and the Ca^2+ inflow was compared with the control (capsaicin 10 μM) (% activation based on the Ca^2+ signal after the addition of 10 μM capsaicin). After 5 minutes' incubation, 100 nM of capsaicin were administered and the Ca^2+ inflow was also determined.
Desensitising agonists and antagonists led to suppression of the Ca^2+ inflow. The % inhibition was calculated compared to the maximum achievable inhibition with 10 μM of capsaicin.

[2] = 5 min incubation, then 100 nM capsaicin, relative to maximum achievable inhibition with 10 μM capsaicin
[3] = Ca2+ inflow relative to signal of 10 μM capsaicin (CP)

T1 sequence (O35433 whole entry): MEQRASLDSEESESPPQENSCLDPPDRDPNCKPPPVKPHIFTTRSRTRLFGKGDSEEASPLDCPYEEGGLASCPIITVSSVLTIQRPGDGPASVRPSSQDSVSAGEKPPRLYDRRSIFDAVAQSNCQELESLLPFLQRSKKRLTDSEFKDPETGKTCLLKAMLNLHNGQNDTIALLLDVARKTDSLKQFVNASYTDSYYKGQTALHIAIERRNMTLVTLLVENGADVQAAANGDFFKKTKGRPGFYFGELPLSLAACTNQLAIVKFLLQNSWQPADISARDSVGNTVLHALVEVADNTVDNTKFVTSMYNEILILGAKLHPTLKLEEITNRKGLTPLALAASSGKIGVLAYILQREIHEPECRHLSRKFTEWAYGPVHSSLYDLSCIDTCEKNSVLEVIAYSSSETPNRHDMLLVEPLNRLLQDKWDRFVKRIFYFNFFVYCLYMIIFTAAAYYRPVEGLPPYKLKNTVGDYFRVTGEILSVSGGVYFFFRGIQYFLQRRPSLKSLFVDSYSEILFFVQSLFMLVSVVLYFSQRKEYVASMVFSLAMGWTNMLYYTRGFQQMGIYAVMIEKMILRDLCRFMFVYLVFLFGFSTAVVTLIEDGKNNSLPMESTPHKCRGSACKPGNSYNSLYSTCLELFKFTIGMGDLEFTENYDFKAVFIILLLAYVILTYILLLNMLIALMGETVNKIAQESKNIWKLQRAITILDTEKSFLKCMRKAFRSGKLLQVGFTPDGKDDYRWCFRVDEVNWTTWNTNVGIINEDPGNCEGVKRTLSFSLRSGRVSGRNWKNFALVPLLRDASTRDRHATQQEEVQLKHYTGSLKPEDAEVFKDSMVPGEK
T2 sequence (Q8NER1 whole entry): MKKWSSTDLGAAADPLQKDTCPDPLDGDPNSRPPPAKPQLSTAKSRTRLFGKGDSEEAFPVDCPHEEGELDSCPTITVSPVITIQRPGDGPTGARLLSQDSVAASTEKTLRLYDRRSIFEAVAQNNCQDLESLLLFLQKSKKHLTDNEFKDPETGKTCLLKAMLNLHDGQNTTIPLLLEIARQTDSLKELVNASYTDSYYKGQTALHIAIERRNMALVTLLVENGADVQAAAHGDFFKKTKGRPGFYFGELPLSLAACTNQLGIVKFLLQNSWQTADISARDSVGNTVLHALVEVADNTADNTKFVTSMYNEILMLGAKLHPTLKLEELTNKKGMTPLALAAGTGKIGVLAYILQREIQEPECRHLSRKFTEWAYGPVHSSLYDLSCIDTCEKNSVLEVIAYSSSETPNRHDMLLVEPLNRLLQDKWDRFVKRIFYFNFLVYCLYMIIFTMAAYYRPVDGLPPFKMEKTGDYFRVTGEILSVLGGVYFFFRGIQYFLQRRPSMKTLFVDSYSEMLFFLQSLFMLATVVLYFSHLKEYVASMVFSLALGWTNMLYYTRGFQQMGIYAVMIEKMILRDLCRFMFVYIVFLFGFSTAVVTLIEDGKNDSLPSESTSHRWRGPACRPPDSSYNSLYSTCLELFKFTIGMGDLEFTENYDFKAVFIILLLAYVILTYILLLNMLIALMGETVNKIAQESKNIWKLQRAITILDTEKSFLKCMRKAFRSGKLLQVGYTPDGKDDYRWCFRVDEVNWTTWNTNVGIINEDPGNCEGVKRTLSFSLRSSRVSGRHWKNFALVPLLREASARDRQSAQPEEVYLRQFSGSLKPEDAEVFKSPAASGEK

inhibition at 10 µM [1, 2] [%]	activation at 10 µM [1, 3] [%]	inhibition at 10 µM (VR1 (human); [2]) [%]	activation at 10 µM (VR1 (human); [3]) [%]	VR1 (rat) (% inhibition compared to 10 μM CP) [1, 2] [%]	VR1 (rat) (% stimulation compared to 10 μM CP) [1, 3] [%]	VR1 (human) (% inhibition compared to 10 μM CP) (VR1 (human); [2]) [%]	VR1 (human) (% stimulation compared to 10 μM CP) (VR1 (human); [3]) [%]	SMILES
72.5	19.5	84.9	72.9					CSc1ccc(NC(=O)N2CCC3(CC2)CC(C(=O)N2CCN(c4ncccc4Cl)CC2)=NO3)cc1 [Example 58, 3-[4-(3-chloropyridin-2-yl)piperazine-1-carbonyl]-1-oxa-2,8-diazaspiro[4.5]dec-2-ene-8-carboxylic acid-(4-methylsulphanylphenyl)amide]
47	0.47	-15.1	0.08					CC(C)c1ccccc1NC(=O)N1CCC2(CC1)CC(C(=O)N1CCN(c3ncccc3Cl)CC1)=NO2 [Example 61, 3-[4-(3-chloropyridin-2-yl)piperazine-1-carbonyl]-1-oxa-2,8-diazaspiro[4.5]dec-2-ene-8-carboxylic acid-(2-isopropylphenyl)amide]
78.9	24.5	15.8	2.59					CC(C)c1ccc(NC(=O)N2CCC3(CC2)CC(C(=O)N2CCN(c4ncccc4Cl)CC2)=NO3)cc1 [Example 63, 3-[4-(3-chloropyridin-2-yl)piperazine-1-carbonyl]-1-oxa-2,8-diazaspiro[4.5]dec-2-ene-8-carboxylic acid-(4-isopropylphenyl)amide]
58.1	6.55	24.9	16.4					O=C(Nc1cccc(C(F)(F)F)c1)N1CCC2(CC1)CC(C(=O)N1CCN(c3ncccc3Cl)CC1)=NO2 [Example 68, 3-[4-(3-chloropyridin-2-yl)piperazine-1-carbonyl]-1-oxa-2,8-diazaspiro[4.5]dec-2-ene-8-carboxylic acid-(3-trifluoromethylphenyl)amide]
95	59	77	42					CC(C)(C)c1ccc(NC(=O)N2CCC3(CC2)CC(C(=O)N2CCN(c4ncccc4Cl)CC2)=NO3)cc1 [Example 116, 3-[4-(3-chloropyridin-2-yl)piperazine-1-carbonyl]-1-oxa-2,8-diazaspiro[4.5]dec-2-ene-8-carboxylic acid-(4-tert-butylphenyl)amide]

Continued, compound first:

SMILES	inhibition at 10 µM [1, 2] [%]	activation at 10 µM [1, 3] [%]	inhibition at 10 µM (VR1 (human); [2]) [%]	activation at 10 µM (VR1 (human); [3]) [%]	VR1 (rat) (% inhibition compared to 10 μM CP) [1, 2] [%]	VR1 (rat) (% stimulation compared to 10 μM CP) [1, 3] [%]	VR1 (human) (% inhibition compared to 10 μM CP) (VR1 (human); [2]) [%]	VR1 (human) (% stimulation compared to 10 μM CP) (VR1 (human); [3]) [%]
COc1ccc(CNC(=O)C2=NOC3(CCN(C(=O)Nc4ccc(C(F)(F)F)cc4)CC3)C2)cc1OC [Example 70, 1-oxa-2,8-diazaspiro[4.5]dec-2-ene-3,8-dicarboxylic acid-3-(3,4-dimethoxybenzylamide)-8-[(4-trifluoromethylphenyl)amide]]					67.41	0.35	−0.43	−0.18
O=C(Nc1ccc(C(F)(F)F)cc1)N1CCC2(CC1)CC(C(=O)N1CCN(c3ncccc3Cl)CC1)=NO2 [Example 71, 3-[4-(3-chloropyridin-2-yl)piperazine-1-carbonyl]-1-oxa-2,8-diazaspiro[4.5]dec-2-ene-8-carboxylic acid-(4-trifluoromethylphenyl)amide]	57.2	31.2	42	34.7				
CC(C)(C)c1ccc(NC(=O)N2CCC3(CC2)CC(C(=O)N2CCN(c4ncccc4C(F)(F)F)CC2)=NO3)cc1 [Example 228, 3-[4-(3-trifluoromethylpyridin-2-yl)piperazine-1-carbonyl]-1-oxa-2,8-diazaspiro[4.5]dec-2-ene-8-carboxylic acid-(4-tert-butylphenyl)amide]	100	17.2	48.1	7.07				
O=C(Nc1ccc(S(F)(F)(F)(F)F)cc1)N1CCC2(CC1)CC(C(=O)N1CCN(c3ncccc3Cl)CC1)=NO2 [Example 229, 3-[4-(3-chloropyridin-2-yl)piperazine-1-carbonyl]-1-oxa-2,8-diazaspiro[4.5]dec-2-ene-8-carboxylic acid-(4-pentafluorosulphanylphenyl)amide]	94	45	37	10				
